According to patent publication US6914045B2, “Glycopeptide antibiotics” (Wyeth Holdings Corporation, priority 2001, dated 2005):
≈ marks a conversion by molar mass, not a printed value. Where two headings read alike, the source gives them in different places.

Columns and labels:
Assay in all cases: in vitro antibacterial evaluation, MIC by broth dilution
Assay type in all cases: cell-based
Enterococcus sp. = tested on: Enterococcus sp.
Summary of the method: (§1)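 Test organisms, which included recent clinical isolates resistant to methicillin, penicillin and/or vancomycin, were inoculated at 5×10^5 CFU/mL into Muller-Hinton II […] containing antibiotic at 64-0.06 μg/mL. Minimum inhibitory concentrations were then read as the lowest level inhibiting growth.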

Staphylococcus sp. = tested on: Staphylococcus sp.
Summary of the method: as §1

Streptococcus sp. = tested on: Streptococcus sp.
Summary of the method: as §1

Escherichia coli = tested on: Escherichia coli
Summary of the method: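 MIC is the lowest antibiotic concentration (tested 64-0.06 μg/mL) preventing growth of a 5×10^5 CFU/mL inoculum. Determined by broth dilution in Mueller-Hinton II medium following NCCLS standard M7-A2.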

[1] = broth dilution, 18 hours at 35° C.

Structure (SMILES): CC(c1ccccc1)C1NC(=O)CNC(=O)C(CO)NC(=O)C(C(O)C2CN(Cc3ccccc3)C(=NCc3ccccc3)N2C2OC(CO)C(O)C(O)C2O)NC(=O)C(C(O)C2CN(Cc3ccccc3)C(=NCc3ccccc3)N2Cc2ccccc2)NC(=O)C(Cc2ccc(OC3OC(CO)C(OC4OC5COC6(OC5C(O)C4O)C4CC5CC(C4)CC6C5)C(O)C3O)cc2)NC1=O (stereo not drawn) [Example 79, Cyclo[glycyl-β-methylphenylalanyl-O-[4-O-[4,6-O-(2-adamantylidene)hexotpyranosyl]hexopyranosyl]tyrosyl-3-[1,3-dibenzyl-2-(benzylimino)imidazolidin-4-yl]seryl-3-[1-benzyl-2-(benzylimino)-3-hexopyranosylimidazolidin-4-yl]serylseryl]]
- MIC Enterococcus avium (GC 4558) (Enterococcus sp.; Enterococcus avium (GC 4558), broth dilution, 18 hours at 35° C.): 2 µg/mL (≈ 1.06 µM)
- MIC Enterococcus faecalis (ATCC 29212) (Enterococcus sp.; Enterococcus faecalis (ATCC 29212), broth dilution, 18 hours at 35° C.): 8 µg/mL (≈ 4.26 µM)
- MIC Enterococcus faecalis (GC 4552) (Enterococcus sp.; Enterococcus faecalis (GC 4552), broth dilution, 18 hours at 35° C.): 32 µg/mL (≈ 17 µM)
- MIC Enterococcus faecalis (GC 4553) (Enterococcus sp.; Enterococcus faecalis (GC 4553), broth dilution, 18 hours at 35° C.): 4 µg/mL (≈ 2.13 µM)
- MIC Enterococcus faecalis (GC 4554) (Enterococcus sp.; Enterococcus faecalis (GC 4554), broth dilution, 18 hours at 35° C.): 16 µg/mL (≈ 8.52 µM)
- MIC Enterococcus faecalis (GC 6189) (Enterococcus sp.; Enterococcus faecalis (GC 6189), broth dilution, 18 hours at 35° C.): 8 µg/mL (≈ 4.26 µM)
- MIC Enterococcus faecium (GC 2243) (Enterococcus sp.; Enterococcus faecium (GC 2243), broth dilution, 18 hours at 35° C.): 8 µg/mL (≈ 4.26 µM)
- MIC Enterococcus faecium (GC 4556) (Enterococcus sp.; Enterococcus faecium (GC 4556), broth dilution, 18 hours at 35° C.): 32 µg/mL (≈ 17 µM)
- MIC Enterococcus faecium (GC 4557) (Enterococcus sp.; Enterococcus faecium (GC 4557), broth dilution, 18 hours at 35° C.): 4 µg/mL (≈ 2.13 µM)
- MIC Enterococcus avium (GC 4558) (Enterococcus sp.; [1]): 2 µg/mL (≈ 1.06 µM)
- MIC Enterococcus faecalis (ATCC 29212) (Enterococcus sp.; [1]): 8 µg/mL (≈ 4.26 µM)
- MIC Enterococcus faecalis (GC 2242) (Enterococcus sp.; [1]): 16 µg/mL (≈ 8.52 µM)
- MIC Enterococcus faecalis (GC 2691) (Enterococcus sp.; [1]): 8 µg/mL (≈ 4.26 µM)
- MIC Enterococcus faecalis (GC 3059) (Enterococcus sp.; [1]): 32 µg/mL (≈ 17 µM)
- MIC Enterococcus faecalis (GC 4552) (Enterococcus sp.; [1]): 32 µg/mL (≈ 17 µM)
- MIC Enterococcus faecalis (GC 4553) (Enterococcus sp.; [1]): 4 µg/mL (≈ 2.13 µM)
- MIC Enterococcus faecalis (GC 4554) (Enterococcus sp.; [1]): 16 µg/mL (≈ 8.52 µM)
- MIC Enterococcus faecalis (GC 6189) (Enterococcus sp.; [1]): 8 µg/mL (≈ 4.26 µM)
- MIC Enterococcus faecium (GC 2243) (Enterococcus sp.; [1]): 8 µg/mL (≈ 4.26 µM)
- MIC Enterococcus faecium (GC 4556) (Enterococcus sp.; [1]): 32 µg/mL (≈ 17 µM)
- MIC Enterococcus faecium (GC 4557) (Enterococcus sp.; [1]): 4 µg/mL (≈ 2.13 µM)
- MIC Enterococcus faecalis (GC 2242) (Enterococcus sp.; broth dilution, 18 hours at 35° C., strain GC 2242): 16 µg/mL (≈ 8.52 µM)
- MIC Enterococcus faecalis (GC 2691) (Enterococcus sp.; broth dilution, 18 hours at 35° C., strain GC 2691): 8 µg/mL (≈ 4.26 µM)
- MIC Enterococcus faecalis (GC 3059) (Enterococcus sp.; broth dilution, 18 hours at 35° C., strain GC 3059): 32 µg/mL (≈ 17 µM)
- MIC Staphylococcus aureus (ATCC 29213) (Staphylococcus sp.; strain ATCC 29213, broth dilution, 18 hours at 35° C.): 4 µg/mL (≈ 2.13 µM)
- MIC Staphylococcus aureus (GC 1131) (Staphylococcus sp.; strain GC 1131, broth dilution, 18 hours at 35° C.): 8 µg/mL (≈ 4.26 µM)
- MIC Staphylococcus aureus (GC 3051) (Staphylococcus sp.; strain GC 3051, broth dilution, 18 hours at 35° C.): 4 µg/mL (≈ 2.13 µM)
- MIC Staphylococcus aureus (GC 3053) (Staphylococcus sp.; strain GC 3053, broth dilution, 18 hours at 35° C.): 4 µg/mL (≈ 2.13 µM)
- MIC Staphylococcus aureus (GC 4541) (Staphylococcus sp.; strain GC 4541, broth dilution, 18 hours at 35° C.): 4 µg/mL (≈ 2.13 µM)
- MIC Staphylococcus aureus (GC 4542) (Staphylococcus sp.; strain GC 4542, broth dilution, 18 hours at 35° C.): 4 µg/mL (≈ 2.13 µM)
- MIC Staphylococcus aureus-SMITH (GC 4543) (Staphylococcus sp.; strain GC 4543, broth dilution, 18 hours at 35° C.): 4 µg/mL (≈ 2.13 µM)
- MIC Staphylococcus aureus (GC 4544) (Staphylococcus sp.; strain GC 4544, broth dilution, 18 hours at 35° C.): 8 µg/mL (≈ 4.26 µM)
- MIC Staphylococcus aureus (GC 4545) (Staphylococcus sp.; strain GC 4545, broth dilution, 18 hours at 35° C.): 4 µg/mL (≈ 2.13 µM)
- MIC Staphylococcus haemolyticus (GC 4546) (Staphylococcus sp.; strain GC 4546, broth dilution, 18 hours at 35° C.): 4 µg/mL (≈ 2.13 µM)
- MIC Coagulase Negative Staphylococcus (GC 4547) (Staphylococcus sp.; strain GC 4547, broth dilution, 18 hours at 35° C.): 4 µg/mL (≈ 2.13 µM)
- MIC Coagulase Negative Staphylococcus (GC 4548) (Staphylococcus sp.; strain GC 4548, broth dilution, 18 hours at 35° C.): 4 µg/mL (≈ 2.13 µM)
- MIC Coagulase Negative Staphylococcus (GC 4549) (Staphylococcus sp.; strain GC 4549, broth dilution, 18 hours at 35° C.): 2 µg/mL (≈ 1.06 µM)
- MIC Coagulase Negative Staphylococcus (GC 4551) (Staphylococcus sp.; strain GC 4551, broth dilution, 18 hours at 35° C.): 4 µg/mL (≈ 2.13 µM)
- MIC Coagulase Negative Staphylococcus (GC 6257) (Staphylococcus sp.; strain GC 6257, broth dilution, 18 hours at 35° C.): 4 µg/mL (≈ 2.13 µM)
- MIC Streptococcus agalactiae (GC 4564) (Streptococcus sp.; [1]): 4 µg/mL (≈ 2.13 µM)
- MIC Streptococcus pneumoniae (ATCC 6301) (Streptococcus sp.; [1]): 4 µg/mL (≈ 2.13 µM)
- MIC Streptococcus pneumoniae (GC 1894) (Streptococcus sp.; [1]): 8 µg/mL (≈ 4.26 µM)
- MIC Streptococcus pneumoniae (GC 4565) (Streptococcus sp.; [1]): 8 µg/mL (≈ 4.26 µM)
- MIC Streptococcus pyogenes (GC 4563) (Streptococcus sp.; [1]): 4 µg/mL (≈ 2.13 µM)
- MIC Streptococcus pneumoniae (ATCC 6301) (Streptococcus sp.; broth dilution, 18 hours at 35° C., strain ATCC 6301): 4 µg/mL (≈ 2.13 µM)
- MIC Streptococcus pneumoniae (GC 1894) (Streptococcus sp.; broth dilution, 18 hours at 35° C., strain GC 1894): 8 µg/mL (≈ 4.26 µM)
- MIC Streptococcus pyogenes (GC 4563) (Streptococcus sp.; broth dilution, 18 hours at 35° C., strain GC 4563): 4 µg/mL (≈ 2.13 µM)
- MIC Streptococcus agalactiae (GC 4564) (Streptococcus sp.; broth dilution, 18 hours at 35° C., strain GC 4564): 4 µg/mL (≈ 2.13 µM)
- MIC Streptococcus pneumoniae (GC 4565) (Streptococcus sp.; broth dilution, 18 hours at 35° C., strain GC 4565): 8 µg/mL (≈ 4.26 µM)
- MIC Escherichia coli (ATCC 25922) (Escherichia coli; 18 hours at 35° C.): >128 µg/mL
- MIC Escherichia coli (GC 4559) (Escherichia coli; 18 hours at 35° C.): >128 µg/mL
- MIC Escherichia coli (GC 4560) (Escherichia coli; 18 hours at 35° C.): 2 µg/mL (≈ 1.06 µM)

Structure (SMILES): CC(C)=Cc1nc2cc(CC3NC(=O)C(C(C)c4ccccc4)NC(=O)CNC(=O)C(CO)NC(=O)C(C(O)C4CNC(=N)N4C4OC(CO)C(O)C(O)C4O)NC(=O)C(C(O)C4CNC(=N)N4)NC3=O)ccc2o1 (stereo not drawn) [Example 40, Cyclo[3-[2-(2-methylprop-1-en-1-yl)-1,3-benzoxazol-5-yl]alanyl-3-(2-iminoimidazolidin-4-yl)seryl-3-(3-hexopyranosyl-2-iminoimidazolidin-4-yl)serylserylglycyl-β-methylphenyl-alanyl]]
- MIC Enterococcus avium (GC 4558) (Enterococcus sp.): 64 µg/mL (≈ 60.9 µM)
- MIC Enterococcus faecalis (ATCC 29212) (Enterococcus sp.): 128 µg/mL (≈ 122 µM)
- MIC Enterococcus faecalis (GC 2242) (Enterococcus sp.): 128 µg/mL (≈ 122 µM)
- MIC Enterococcus faecalis (GC 2691) (Enterococcus sp.): 128 µg/mL (≈ 122 µM)
- MIC Enterococcus faecalis (GC 3059) (Enterococcus sp.): >128 µg/mL
- MIC Enterococcus faecalis (GC 4552) (Enterococcus sp.): >128 µg/mL
- MIC Enterococcus faecalis (GC 4553) (Enterococcus sp.): 64 µg/mL (≈ 60.9 µM)
- MIC Enterococcus faecalis (GC 4554) (Enterococcus sp.): >128 µg/mL
- MIC Enterococcus faecalis (GC 6189) (Enterococcus sp.): 128 µg/mL (≈ 122 µM)
- MIC Enterococcus faecium (GC 2243) (Enterococcus sp.): 64 µg/mL (≈ 60.9 µM)
- MIC Enterococcus faecium (GC 4556) (Enterococcus sp.): 128 µg/mL (≈ 122 µM)
- MIC Enterococcus faecium (GC 4557) (Enterococcus sp.): 16 µg/mL (≈ 15.2 µM)
- MIC Coagulase Negative Staphylococcus (GC 4547) (Staphylococcus sp.): 16 µg/mL (≈ 15.2 µM)
- MIC Coagulase Negative Staphylococcus (GC 4548) (Staphylococcus sp.): 32 µg/mL (≈ 30.5 µM)
- MIC Coagulase Negative Staphylococcus (GC 4549) (Staphylococcus sp.): 16 µg/mL (≈ 15.2 µM)
- MIC Coagulase Negative Staphylococcus (GC 4551) (Staphylococcus sp.): 32 µg/mL (≈ 30.5 µM)
- MIC Coagulase Negative Staphylococcus (GC 6257) (Staphylococcus sp.): 16 µg/mL (≈ 15.2 µM)
- MIC Staphylococcus aureus (ATCC 29213) (Staphylococcus sp.): 64 µg/mL (≈ 60.9 µM)
- MIC Staphylococcus aureus (GC 1131) (Staphylococcus sp.): 64 µg/mL (≈ 60.9 µM)
- MIC Staphylococcus aureus (GC 3051) (Staphylococcus sp.): 64 µg/mL (≈ 60.9 µM)
- MIC Staphylococcus aureus (GC 3053) (Staphylococcus sp.): 64 µg/mL (≈ 60.9 µM)
- MIC Staphylococcus aureus (GC 4541) (Staphylococcus sp.): 64 µg/mL (≈ 60.9 µM)
- MIC Staphylococcus aureus (GC 4542) (Staphylococcus sp.): 64 µg/mL (≈ 60.9 µM)
- MIC Staphylococcus aureus (GC 4544) (Staphylococcus sp.): 32 µg/mL (≈ 30.5 µM)
- MIC Staphylococcus aureus (GC 4545) (Staphylococcus sp.): 32 µg/mL (≈ 30.5 µM)
- MIC Staphylococcus aureus-SMITH (GC 4543) (Staphylococcus sp.): 64 µg/mL (≈ 60.9 µM)
- MIC Staphylococcus haemolyticus (GC 4546) (Staphylococcus sp.): 16 µg/mL (≈ 15.2 µM)
- MIC Streptococcus agalactiae (GC 4564) (Streptococcus sp.): 64 µg/mL (≈ 60.9 µM)
- MIC Streptococcus pneumoniae (ATCC 6301) (Streptococcus sp.): 64 µg/mL (≈ 60.9 µM)
- MIC Streptococcus pneumoniae (GC 1894) (Streptococcus sp.): 32 µg/mL (≈ 30.5 µM)
- MIC Streptococcus pneumoniae (GC 4565) (Streptococcus sp.): 128 µg/mL (≈ 122 µM)
- MIC Streptococcus pyogenes (GC 4563) (Streptococcus sp.): 32 µg/mL (≈ 30.5 µM)
- MIC Escherichia coli (ATCC 25922) (Escherichia coli): 32 µg/mL (≈ 30.5 µM)
- MIC Escherichia coli (GC 4559) (Escherichia coli): 32 µg/mL (≈ 30.5 µM)
- MIC Escherichia coli (GC 4560) (Escherichia coli): 16 µg/mL (≈ 15.2 µM)
